From ChEMBL document CHEMBL1201862, “PubChem BioAssay data set” (2004)
Calls of active or inactive are those of the source.

Experiments:
[1] = tested on: H9c2; test: cells; assay type: functional, cell-based; settings: Rattus norvegicus, H9c2, Myocardium;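 also: confirmatory concentration-response retest of ultra-high-throughput screening hits for modulation of myocardial damage; cell death induced by hydrogen peroxide oxidative stress; compound pretreatment for 60 min then peroxide exposure for 2 h; potency is for protecting the cells against peroxide damage rather than for killing them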
[2] = Luminescence Cell-Based Dose Confirmation HTS to Identify Activators of 5'UTR Stem-Loop Driven Alpha-Synuclein mRNA Translation in H4 Neuroglioblastoma Cells. [Related pubchem assays: 1829 (Project Summary), 1814 (Primary HTS)]; assay type: functional
[3] = Luminescence Cell-Based Dose Response HTS to Identify Activators of Luciferase Translation or Activity in H4 […] Cells. [Related pubchem assays: 1829 (Project Summary), 1814 (Primary HTS)]; assay type: functional
[4] = tested on: H4; test: Luminescence Cell-Based Dose Response HTS to Identify Activators of 5'UTR Stem-Loop Driven Prion Protein mRNA Translation in H4 Neuroglioblastoma Cells. [Related pubchem assays: 1829 (Project Summary), 1814 (Primary HTS)]; assay type: functional; settings: Homo sapiens
[5] = molecular target: T1, Short transient receptor potential channel 4 (Mus musculus, UniProt Q9QUQ5); test: calcium entry via TRPC4 opening agents – cell-based, HEK293 TRPC4/mu-opioid, Fluo-4 calcium, dose response (AID 434937); assay type: functional
T1 sequence (Q9QUQ5 whole entry): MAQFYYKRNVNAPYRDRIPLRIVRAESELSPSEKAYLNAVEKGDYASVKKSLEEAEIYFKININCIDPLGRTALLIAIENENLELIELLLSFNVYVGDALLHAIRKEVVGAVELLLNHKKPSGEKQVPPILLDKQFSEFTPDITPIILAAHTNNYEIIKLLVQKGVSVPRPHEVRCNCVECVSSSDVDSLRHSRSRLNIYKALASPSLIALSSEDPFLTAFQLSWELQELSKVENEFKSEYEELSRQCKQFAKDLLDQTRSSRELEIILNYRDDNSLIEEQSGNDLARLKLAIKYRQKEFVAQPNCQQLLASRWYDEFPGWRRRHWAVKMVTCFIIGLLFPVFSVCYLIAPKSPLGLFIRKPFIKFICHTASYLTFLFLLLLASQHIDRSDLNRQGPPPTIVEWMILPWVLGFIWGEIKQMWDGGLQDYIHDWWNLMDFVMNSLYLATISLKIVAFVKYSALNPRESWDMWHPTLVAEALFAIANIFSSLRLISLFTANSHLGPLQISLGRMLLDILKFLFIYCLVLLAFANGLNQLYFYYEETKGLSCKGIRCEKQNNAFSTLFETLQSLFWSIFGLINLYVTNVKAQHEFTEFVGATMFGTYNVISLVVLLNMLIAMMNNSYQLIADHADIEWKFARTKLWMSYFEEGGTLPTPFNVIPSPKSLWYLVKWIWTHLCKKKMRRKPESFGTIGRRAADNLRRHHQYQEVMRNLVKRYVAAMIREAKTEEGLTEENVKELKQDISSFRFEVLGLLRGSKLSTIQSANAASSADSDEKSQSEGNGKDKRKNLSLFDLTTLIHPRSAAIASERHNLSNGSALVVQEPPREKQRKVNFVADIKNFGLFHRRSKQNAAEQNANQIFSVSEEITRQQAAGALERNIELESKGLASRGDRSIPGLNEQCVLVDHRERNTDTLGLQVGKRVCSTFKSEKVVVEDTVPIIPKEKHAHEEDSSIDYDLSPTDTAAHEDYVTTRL

[6] = molecular target: T2, Ubiquitin-conjugating enzyme E2 N (Homo sapiens, UniProt P61088); assay type: functional;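 also: Dose-response confirmation in a TR-FRET assay detecting UBC13-driven polyubiquitin chain formation, inhibition measured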
T2 sequence (P61088 whole entry): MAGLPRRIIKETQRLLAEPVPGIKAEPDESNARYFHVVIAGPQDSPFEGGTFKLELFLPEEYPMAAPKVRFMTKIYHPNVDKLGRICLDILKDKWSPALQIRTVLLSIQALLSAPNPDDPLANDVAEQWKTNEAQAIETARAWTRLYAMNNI

[7] = molecular target: T3, Protein skinhead-1 (Caenorhabditis elegans, UniProt P34707); assay type: functional
T3 sequence (P34707 whole entry): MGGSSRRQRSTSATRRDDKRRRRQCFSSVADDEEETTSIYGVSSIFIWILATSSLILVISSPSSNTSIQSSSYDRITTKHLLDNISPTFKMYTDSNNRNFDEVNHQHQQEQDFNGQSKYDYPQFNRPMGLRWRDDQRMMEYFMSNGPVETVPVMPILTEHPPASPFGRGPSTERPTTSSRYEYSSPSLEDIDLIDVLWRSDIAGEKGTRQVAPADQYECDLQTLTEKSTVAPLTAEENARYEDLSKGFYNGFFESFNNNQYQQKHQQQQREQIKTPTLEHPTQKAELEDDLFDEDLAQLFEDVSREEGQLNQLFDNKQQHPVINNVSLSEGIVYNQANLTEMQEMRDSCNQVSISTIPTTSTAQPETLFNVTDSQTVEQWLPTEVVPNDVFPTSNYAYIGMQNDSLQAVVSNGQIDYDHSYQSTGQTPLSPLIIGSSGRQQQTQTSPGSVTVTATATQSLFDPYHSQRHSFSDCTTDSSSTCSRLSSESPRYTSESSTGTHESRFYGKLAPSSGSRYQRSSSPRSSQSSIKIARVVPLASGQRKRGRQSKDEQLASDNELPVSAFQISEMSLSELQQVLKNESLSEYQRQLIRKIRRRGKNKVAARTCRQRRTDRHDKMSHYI

[8] = molecular target: Glyceraldehyde-3-phosphate dehydrogenase (Homo sapiens, UniProt P04406)
[9] = luciferase reporter signal suppression in cells – H4 neuroglioma cells, luminescence, dose response (AID 1990); assay type: functional, cell-based
[10] = Luminescence Cell-Based Dose Response HTS to Identify Inhibitors of 5'UTR Stem-Loop Driven Prion Protein mRNA Translation in H4 Neuroglioblastoma Cells. [Related pubchem assays: 1827 (Project Summary), 1813 (Primary HTS)]; assay type: functional
[11] = molecular target: T4, Heat shock factor protein 1 (Mus musculus, UniProt P38532); test: decrease of HSF1-responsive luciferase luminescence – cell-based, NIH3T3, dose retest, confirmation (AID 2382); assay type: functional;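 also: NIH3T3 fibroblasts with HSF1-driven luciferase reporter stressed by proteasome inhibitor MG132; luminescence from HSF1-driven luciferase expression after 8 hours of MG132 stress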
T4 sequence (P38532 whole entry): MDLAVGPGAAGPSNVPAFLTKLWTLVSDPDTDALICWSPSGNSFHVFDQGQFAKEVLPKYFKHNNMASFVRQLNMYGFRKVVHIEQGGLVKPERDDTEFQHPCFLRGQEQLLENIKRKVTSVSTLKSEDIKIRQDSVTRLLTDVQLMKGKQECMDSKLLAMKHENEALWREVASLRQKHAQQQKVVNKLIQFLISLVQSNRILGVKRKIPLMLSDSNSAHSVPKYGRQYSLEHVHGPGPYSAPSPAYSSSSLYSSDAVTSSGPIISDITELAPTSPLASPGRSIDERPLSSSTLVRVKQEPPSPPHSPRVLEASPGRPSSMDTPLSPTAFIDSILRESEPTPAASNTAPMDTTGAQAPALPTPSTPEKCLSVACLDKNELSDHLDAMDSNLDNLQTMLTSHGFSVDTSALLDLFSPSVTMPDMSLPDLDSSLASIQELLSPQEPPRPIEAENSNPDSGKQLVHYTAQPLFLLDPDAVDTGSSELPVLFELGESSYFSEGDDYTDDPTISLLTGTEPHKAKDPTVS

[12] = alpha-synuclein stem-loop luciferase translation blockers – H4 neuroglioma cells, luminescence, confirmation (AID 1988); assay type: functional, cell-based
[13] = A549 cell cytotoxicity, dose response, cytotoxicity control, plate reader, cherry-pick, antagonist series (AID 743412); assay type: functional, cell-based
[14] = blockers of bursicon-stimulated LGR2 cAMP reporter – cell-based, HEK293, CRE-luciferase reporter, cherry pick, set 2, dose response (AID 743343); assay type: functional;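 also: transfected cells were stimulated with diluted bursicon conditioned medium after compound addition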
[15] = blockade of melanocortin 4 receptor signaling – cell-based, plate reader, cherry pick, counter-screen for LGR2 antagonist project, dose response (AID 743444); assay type: functional;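 also: transfected HEK 293 cells stimulated with alpha-MSH peptide; potency of inhibitors of the alpha-MSH evoked signal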
[16] = tested on: P388/ADR; test: cells; assay type: functional; settings: Mus musculus
[17] = tested on: SN12K1; test: cells; assay type: functional; settings: Homo sapiens, SN12K1
[18] = tested on: P388; test: cells; assay type: functional; settings: Mus musculus, P388
[19] = molecular target: Luciferin 4-monooxygenase (Photinus pyralis, UniProt P08659); test: inhibition of purified Photinus pyralis luciferase – biochemical, luminescence, dose response (AID 1891)
[20] = Luminescence Cell-Based Dose Confirmation HTS to Identify Inhibitors of Platelet Dense Granule Release. [Related pubchem assays: 1663 (Primary HTS), 1678 (Summary of Project)]; assay type: functional
[21] = intracellular Trypanosoma cruzi inhibitors in host cells – cell-based, plate reader, cherry-pick samples, set 3, dose response (AID 651818); assay type: functional;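 also: compounds incubated with infected cells for about four days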

Glyceraldehyde-3-phosphate dehydrogenase, sequence (P04406 whole entry): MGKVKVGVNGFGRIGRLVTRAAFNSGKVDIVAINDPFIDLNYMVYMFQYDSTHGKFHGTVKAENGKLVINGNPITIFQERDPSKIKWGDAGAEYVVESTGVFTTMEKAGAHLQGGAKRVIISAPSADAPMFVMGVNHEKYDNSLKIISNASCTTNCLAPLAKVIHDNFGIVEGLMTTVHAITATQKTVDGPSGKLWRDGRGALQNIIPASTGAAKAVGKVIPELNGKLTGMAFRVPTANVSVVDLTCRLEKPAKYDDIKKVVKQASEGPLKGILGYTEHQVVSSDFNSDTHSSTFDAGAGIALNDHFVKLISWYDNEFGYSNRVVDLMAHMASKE
Luciferin 4-monooxygenase, sequence (P08659 whole entry): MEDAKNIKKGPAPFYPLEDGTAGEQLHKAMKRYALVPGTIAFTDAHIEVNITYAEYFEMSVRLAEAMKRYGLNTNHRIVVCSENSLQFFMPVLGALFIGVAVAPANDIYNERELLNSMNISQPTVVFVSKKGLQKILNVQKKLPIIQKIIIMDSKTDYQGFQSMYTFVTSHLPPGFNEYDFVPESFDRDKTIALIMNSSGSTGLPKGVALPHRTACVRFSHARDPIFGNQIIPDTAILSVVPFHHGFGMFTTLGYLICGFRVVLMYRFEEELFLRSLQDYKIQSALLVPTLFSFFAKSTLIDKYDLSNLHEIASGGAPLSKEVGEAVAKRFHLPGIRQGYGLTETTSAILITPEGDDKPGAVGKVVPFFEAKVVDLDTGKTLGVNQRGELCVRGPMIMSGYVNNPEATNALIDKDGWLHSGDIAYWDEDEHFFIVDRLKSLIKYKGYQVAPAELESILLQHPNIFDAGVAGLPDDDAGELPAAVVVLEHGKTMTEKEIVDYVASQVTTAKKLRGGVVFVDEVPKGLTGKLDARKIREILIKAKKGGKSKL

COc1ccccc1CN(C)C(=O)c1cc(-c2cc(OC)c(OC)c(OC)c2)nc2ccccc12
IC50 [1]: 29.1 µM (active)

O=C(NCCc1ccccc1Cl)c1ccc2nc3ccccc3c(=O)n2c1
EC50 [2]: 10.2 µM (active)
EC50 [3]: > 120 µM (not active)
EC50 [4]: > 120 µM (not active)
IC50 [1]: > 79 µM (inactive)

COc1ccccc1N1CCN(C(c2cccs2)C(C)NC(=O)c2cccs2)CC1 (configuration not stated)
EC50 [5]: 0.335 µM (active)

CCc1nnc(NC(=O)CSc2nnc(CNc3ccc(OC)cc3)n2C)s1
IC50 [1]: 28.3 µM (active)

O=C(NCC1CCN(Cc2ccccc2F)CC1)C1CCCN(c2ncnc3c2nc2n3CCCCC2)C1 (configuration not stated)
IC50 [6]: > 20 µM (inactive)

CCc1ccc(C(C)NC(=O)c2cc(C)oc2C)cc1 (configuration not stated)
IC50 [1]: > 79 µM (inactive)

c1cc2[nH]c(C3CC3)nc2c2nsnc12
IC50 [1]: > 79 µM (inactive)

Cc1cc(C(=O)CSc2nnc(C3COc4ccccc4O3)n2C)c(C)n1-c1ccc(F)cc1 (configuration not stated)
IC50 [7]: > 100 µM (inactive)

Fc1ccc(-c2csc(N3CCSCC3)n2)cc1
IC50 [7]: > 100 µM (inactive)

Cc1cc(C)c(NS(=O)(=O)c2ccc(O)c(C(=O)O)c2)c(C)c1
IC50 [8]: > 100 µM (not active)

C#CCOCCOCCOCCNc1nc(N2CCN(C(=O)[C@H]([C@@H](C)CC)n3cc([C@@H](N)Cc4ccc(O)cc4)nn3)CC2)nc(N2CCN(C(=O)[C@H](CCCCN)n3cc([C@@H](N)CO)nn3)CC2)n1
IC50 [6]: > 20 µM (inactive)

CCOc1ccc(S(=O)(=O)Nc2ccc(O)c(C(=O)O)c2)cc1
IC50 [8]: > 100 µM (not active)

O=C(Nc1nc(-c2cc(F)ccc2F)cs1)C1=NN(c2ccccc2)C(=O)CC1
IC50 [1]: > 79 µM (inactive)

CN1CCN(c2ccc(NC(=O)N3CCc4ccccc43)cc2)CC1
EC50 [9]: 6.81 µM (inconclusive)
EC50 [10]: 9.49 µM (active)
EC50 [11]: < 0.16 µM (active)
EC50 [12]: > 120 µM (not active)
AC50 [13]: > 52 µM (inactive)
AC50 [14]: 2.2 µM (active)
AC50 [15]: 4.38 µM (active)

Cc1ccc(CN(C(=O)CNC(=O)c2cccs2)C(C(=O)NCC2CCCO2)c2ccccc2)cc1 (configuration not stated)
IC50 [1]: > 79 µM (inactive)

COc1ccc(CN(C(=O)c2oc3ccccc3c2C)C2CCS(=O)(=O)C2)cc1 (configuration not stated)
IC50 [7]: > 100 µM (inactive)

Clc1ccc(Cc2noc(-c3cccs3)n2)cc1
IC50 [7]: 4.34 µM (active)

CCC1CCCCN1S(=O)(=O)c1ccc(C(=O)N(CCCN(C)C)c2nc3cc4c(cc3s2)OCO4)cc1 (configuration not stated)
EC50 [5]: 6.68 µM (active)

COc1ccc(S(=O)(=O)N2CC(C(=O)O)Oc3ccccc32)cc1 (configuration not stated)
IC50 [7]: > 100 µM (inactive)

C=C1C(=O)OCC2C(C(=O)O)=CC3C(C)C(C)=CC123 (configuration not stated)
GI50 [16]: 5.77 µM (inactive)
GI50 [17]: 9.08 µM (inactive)
GI50 [18]: 5.21 µM (inactive)

CC(=O)c1ccc2c(c1)c1c(C)c3c[n+](C)ccc3c(C)c1n2C
GI50 [16]: 3 µM (inactive)
GI50 [17]: 1.34 µM (inactive)
GI50 [18]: 0.634 µM (active)

Clc1ccccc1-c1nc(N/N=C/c2cccnc2)c2ccccc2n1
EC50 [19]: > 112 µM (not active)
EC50 [20]: > 112 µM (not active)
IC50 [1]: > 79 µM (inactive)

CC1OC(O[C@@H]2C=C3CC[C@@H]4[C@H](CC[C@]5(C)[C@@H](c6ccc(=O)oc6)CC[C@]45O)[C@@]3(C)CC2)C(O)C(O)C1O (some centres not stated)
GI50 [16]: 47.1 µM (inactive)
GI50 [18]: 20.7 µM (inactive)

CN(C)CC(CC1=C(CC(CN(C)C)N(C)C)CCC1)N(C)C (configuration not stated)
GI50 [16]: > 100 µM (inactive)
GI50 [17]: > 100 µM (inactive)
GI50 [18]: > 100 µM (inactive)

COc1cccc2c1C(=O)c1c(O)c3c(c(O)c1C2=O)CC(O)(C(C)=O)CC3O (configuration not stated)
GI50 [16]: 1.81 µM (inactive)
GI50 [17]: 2.07 µM (inactive)
GI50 [18]: 1.09 µM (active)

CN(C)C(=O)/C=C/c1c[nH]c(=O)[nH]c1=O
GI50 [16]: > 281 µM (inactive)
GI50 [17]: > 500 µM (inactive)
GI50 [18]: > 281 µM (inactive)

Nc1ccc(/N=N/c2ccc(/C=C/c3ccc(/N=N/c4ccc(N)c5ccc(S(=O)(=O)O)cc45)cc3S(=O)(=O)O)c(S(=O)(=O)O)c2)c2cc(S(=O)(=O)O)ccc12
GI50 [16]: > 100 µM (inactive)
GI50 [17]: > 100 µM (inactive)
GI50 [18]: > 100 µM (inactive)

COc1ccc(NC(=O)Nc2ccc3c(c2)C(=O)N([C@@H](C)CO)C[C@H](C)[C@@H](CN(C)Cc2ccc(-c4ccccc4)cc2)O3)cc1
AC50 [21]: 5.13 µM (active)

C[C@@H]1CN([C@H](C)CO)C(=O)c2cccc(NS(=O)(=O)c3ccc(Cl)cc3)c2O[C@H]1CN(C)Cc1ccc(C(=O)Nc2ccccc2N)cc1
AC50 [21]: 1.77 µM (active)

C[C@@H]1CCCCO[C@H](CN(C)Cc2ccc3c(c2)OCO3)[C@@H](C)CN([C@H](C)CO)C(=O)c2cc(NC(=O)Nc3ccc(C(F)(F)F)cc3)ccc2O1
AC50 [21]: 2.16 µM (active)

C[C@H]1CN([C@@H](C)CO)C(=O)Cc2cc(NS(=O)(=O)c3ccccc3)ccc2O[C@@H]1CN(C)Cc1ccc(-c2ccccc2)cc1
AC50 [21]: 5.32 µM (active)

O=C(N/N=C/c1ccco1)C1COc2ccccc2O1 (configuration not stated)
EC50 [5]: 4.22 µM (active)

N=C(Nc1ccccc1)Nc1ccccc1
EC50 [5]: 10.6 µM (active)
